# Experimental data as given in ChEMBL document CHEMBL1287708, “Synthesis, biological evaluation and radiolabelling by 18F-fluoroarylation of a dopamine D3-selective ligand as prospective imaging probe for PET” (Bioorg Med Chem Lett, 2010).
# Columns and labels:
# Cortex [1] = experiment: Drug uptake in Sprague-Dawley rat cortex at 9.3 MBq, iv measured after 45 mins by autoradiography in presence of 1 mg/kg BP897; assay type: ADME, organism-based; set-up: dose 1 mg/kg, route intravenous; details: in vivo, 0.75 h
# Striatum [2] = experiment: Drug uptake in Sprague-Dawley rat striatum at 9.3 MBq, iv measured after 45 mins by autoradiography in presence of 1 mg/kg BP897; assay type: ADME, organism-based; set-up: dose 1 mg/kg, route intravenous; details: in vivo, 0.75 h
# Cortex [3] = experiment: Drug uptake in Sprague-Dawley rat cortex at 8.5 MBq, iv measured after 45 mins by autoradiography; assay type: ADME, organism-based; details: in vivo, 0.75 h
# Striatum [4] = experiment: Drug uptake in Sprague-Dawley rat striatum at 8.5 MBq, iv measured after 45 mins by autoradiography; assay type: ADME, organism-based; details: in vivo, 0.75 h
# [5] = Lipophilicity, log D of the compound in n-octanol-phosphate buffered saline at pH 7.4; assay type: physicochemical
# [6] = tested on: brain ventricle (Rattus norvegicus); experiment: Drug uptake in Sprague-Dawley rat brain ventricle at 8.5 MBq, iv measured after 45 mins by autoradiography; details: in vivo, 0.75 h
# [7] = tested on: brain ventricle (Rattus norvegicus); experiment: Drug uptake in Sprague-Dawley rat brain ventricle at 9.3 MBq, iv measured after 45 mins by autoradiography in presence of 1 mg/kg BP897; details: in vivo, 0.75 h
# D(2) dopamine receptor [8] = target: T1, D(2) dopamine receptor (Homo sapiens, UniProt P14416); experiment: Agonist activity at human dopamine receptor D2long expressed in CHO10001 cells assessed as stimulation of incorporation [3H]-thymidine incorporation; assay type: functional, cell-based
# T1 sequence (P14416 whole entry): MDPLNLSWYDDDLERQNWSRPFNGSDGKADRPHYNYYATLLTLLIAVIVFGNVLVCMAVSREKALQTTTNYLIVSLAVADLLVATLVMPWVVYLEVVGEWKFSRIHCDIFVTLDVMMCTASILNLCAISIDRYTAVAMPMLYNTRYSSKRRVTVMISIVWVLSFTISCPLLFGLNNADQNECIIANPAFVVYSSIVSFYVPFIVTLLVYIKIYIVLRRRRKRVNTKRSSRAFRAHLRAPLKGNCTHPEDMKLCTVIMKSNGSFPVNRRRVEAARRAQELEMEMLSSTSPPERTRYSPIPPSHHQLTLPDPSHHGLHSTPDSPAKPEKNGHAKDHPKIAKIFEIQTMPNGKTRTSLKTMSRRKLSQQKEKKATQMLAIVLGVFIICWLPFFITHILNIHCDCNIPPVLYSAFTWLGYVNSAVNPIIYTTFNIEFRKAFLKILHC
# D(3) dopamine receptor [9] = target: T2, D(3) dopamine receptor (Homo sapiens, UniProt P35462); experiment: Agonist activity at human dopamine D3 receptor expressed in CHO dhfr-negative cells assessed as stimulation of [3H]-thymidine incorporation; assay type: functional, cell-based
# T2 sequence (P35462 whole entry): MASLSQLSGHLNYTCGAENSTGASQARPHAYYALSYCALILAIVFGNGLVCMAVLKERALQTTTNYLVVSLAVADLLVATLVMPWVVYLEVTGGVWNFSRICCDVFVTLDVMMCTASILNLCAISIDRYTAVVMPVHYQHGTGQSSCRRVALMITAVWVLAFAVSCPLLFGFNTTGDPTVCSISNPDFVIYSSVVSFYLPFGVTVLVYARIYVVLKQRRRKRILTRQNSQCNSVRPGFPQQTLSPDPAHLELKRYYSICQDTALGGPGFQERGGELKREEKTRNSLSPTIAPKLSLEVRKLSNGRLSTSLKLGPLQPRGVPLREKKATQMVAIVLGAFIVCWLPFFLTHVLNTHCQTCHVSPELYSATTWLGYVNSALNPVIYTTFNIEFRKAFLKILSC
# [10] = Displacement of [3H]prazosin from alpha1 adrenoceptor in porcine cerebral cortex membranes; assay type: cell membranes, Sus scrofa, Membrane
# [11] = target: 5-hydroxytryptamine receptor 2A (Sus scrofa, UniProt P50129); experiment: Displacement of [3H]ketanserin from 5-HT2 receptor in porcine cerebral cortex membranes; assay type: cell membranes, Membrane
# Chain of 5-hydroxytryptamine receptor 2A (P50129 whole entry): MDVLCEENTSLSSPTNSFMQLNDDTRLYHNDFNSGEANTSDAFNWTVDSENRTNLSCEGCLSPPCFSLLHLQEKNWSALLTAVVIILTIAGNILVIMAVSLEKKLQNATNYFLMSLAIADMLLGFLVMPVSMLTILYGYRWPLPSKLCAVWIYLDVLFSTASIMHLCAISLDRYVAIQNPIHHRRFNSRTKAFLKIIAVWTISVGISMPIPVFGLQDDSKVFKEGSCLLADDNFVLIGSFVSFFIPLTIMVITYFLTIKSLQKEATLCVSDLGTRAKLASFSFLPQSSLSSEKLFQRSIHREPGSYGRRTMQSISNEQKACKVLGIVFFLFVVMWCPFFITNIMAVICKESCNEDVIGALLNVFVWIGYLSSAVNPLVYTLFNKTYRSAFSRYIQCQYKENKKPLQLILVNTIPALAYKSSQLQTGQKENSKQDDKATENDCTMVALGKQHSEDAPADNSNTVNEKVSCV
# [12] = Displacement of [3H][…] from 5-HT1A receptor in porcine cerebral cortex membranes; assay type: cell membranes, Sus scrofa, Membrane
# D(4) dopamine receptor = target: T3, D(4) dopamine receptor (Homo sapiens, UniProt P21917); experiment: Displacement of [3H]spiperone from human dopamine D4.4 receptor expressed in CHO cells; assay type: cell-based
# T3 sequence (P21917 whole entry): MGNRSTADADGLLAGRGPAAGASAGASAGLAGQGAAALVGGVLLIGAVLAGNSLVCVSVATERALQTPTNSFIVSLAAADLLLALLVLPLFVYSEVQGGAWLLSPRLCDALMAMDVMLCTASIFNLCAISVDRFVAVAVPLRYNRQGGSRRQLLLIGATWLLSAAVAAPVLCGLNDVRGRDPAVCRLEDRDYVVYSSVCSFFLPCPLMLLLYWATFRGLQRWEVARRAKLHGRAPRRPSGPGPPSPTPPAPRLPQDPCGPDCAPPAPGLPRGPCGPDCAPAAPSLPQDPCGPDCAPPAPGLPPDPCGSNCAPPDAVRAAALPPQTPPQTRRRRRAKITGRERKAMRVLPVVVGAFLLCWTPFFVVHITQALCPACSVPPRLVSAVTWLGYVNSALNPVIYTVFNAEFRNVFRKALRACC
# D(2) dopamine receptor [13] = target: T1, D(2) dopamine receptor; experiment: Displacement of [3H]spiperone from human dopamine D2long receptor expressed in CHO cells; assay type: cell-based
# D(1A) dopamine receptor = D(1A) dopamine receptor (Sus scrofa, UniProt P50130); experiment: Displacement of [3H][…] from dopamine D1 receptor in porcine cerebral cortex membranes; assay type: cell membranes, Membrane
# Chain of D(1A) dopamine receptor (P50130 whole entry): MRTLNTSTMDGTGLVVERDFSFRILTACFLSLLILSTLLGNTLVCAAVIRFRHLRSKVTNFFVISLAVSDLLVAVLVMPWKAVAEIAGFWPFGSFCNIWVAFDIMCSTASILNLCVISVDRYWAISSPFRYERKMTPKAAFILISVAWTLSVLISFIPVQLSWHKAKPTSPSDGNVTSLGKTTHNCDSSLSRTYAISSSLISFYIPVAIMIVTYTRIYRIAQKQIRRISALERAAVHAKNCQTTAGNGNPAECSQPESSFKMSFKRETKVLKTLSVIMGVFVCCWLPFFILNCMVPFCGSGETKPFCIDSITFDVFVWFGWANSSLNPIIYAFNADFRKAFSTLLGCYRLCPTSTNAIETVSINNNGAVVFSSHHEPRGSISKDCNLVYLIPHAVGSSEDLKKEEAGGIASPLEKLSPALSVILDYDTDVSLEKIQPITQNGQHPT
# D(3) dopamine receptor [14] = target: T2, D(3) dopamine receptor; experiment: biochemical
# Description: Displacement of [3H]spiperone from human dopamine D3 receptor expressed in CHO cells
Drug uptake (Cortex [1]) [cpm/mm2],Drug uptake (Striatum [2]) [cpm/mm2],Drug uptake (Cortex [3]) [cpm/mm2],Drug uptake (Striatum [4]) [cpm/mm2],logD [5],Drug uptake [6] [cpm/mm2],Drug uptake [7] [cpm/mm2],EC50 (D(2) dopamine receptor [8]) [nM],EC50 (D(3) dopamine receptor [9]) [nM],Ki [10] [nM],Ki [11] [nM],Ki [12] [nM],Ki (D(4) dopamine receptor) [nM],Ki (D(2) dopamine receptor [13]) [nM],Ki (D(1A) dopamine receptor) [nM],Ki (D(3) dopamine receptor [14]) [nM],Compound
3120,3086,32293,28851,2.07,38717,18275,,,,,,,,,,COc1ccccc1N1CCN(CCCCNC(=O)/C=C/c2ccc([18F])cc2)CC1
,,,,,,,1.7,3.9,5.2,330,28,43,27,1100,0.34,COc1ccccc1N1CCN(CCCCNC(=O)/C=C/c2ccc(F)cc2)CC1
,,,,,,,,,8,250,100,170,,270,0.51,N#[11C]c1cccc(N2CCN(CCN3CCC(C(F)(F)F)CC3)C2=O)c1
